The text below walks through data of patent US20120009124A1, “USE OF BUFFERS FOR RADIONUCLIDE COMPLEXATION” (GUERBET, priority 2009, published 2012).

The text on data set [1]: It is also possible to combine several buffers in combination (buffer mixtures) in particular so as to optimize the buffering capacity ranges and the choice of the chelates and of the biovectors, it being specified that not all chelates necessarily have the same complexation, depending on the buffer under consideration.
Another data set concerns the target CXCR4 (Homo sapiens, UniProt P61073). Description: IC50 of cyclic peptides for targeting CXCR4. Type of data set: binding. The following applies: peptide biovectors for targeting CXCR4.

Read-outs that look alike come from different tables or passages of the source. Where a SMILES comes first, the peptide text is derived from it. [ ]: non-standard residue; d: D form.

Sequence of CXCR4 (P61073 whole entry, species assumed): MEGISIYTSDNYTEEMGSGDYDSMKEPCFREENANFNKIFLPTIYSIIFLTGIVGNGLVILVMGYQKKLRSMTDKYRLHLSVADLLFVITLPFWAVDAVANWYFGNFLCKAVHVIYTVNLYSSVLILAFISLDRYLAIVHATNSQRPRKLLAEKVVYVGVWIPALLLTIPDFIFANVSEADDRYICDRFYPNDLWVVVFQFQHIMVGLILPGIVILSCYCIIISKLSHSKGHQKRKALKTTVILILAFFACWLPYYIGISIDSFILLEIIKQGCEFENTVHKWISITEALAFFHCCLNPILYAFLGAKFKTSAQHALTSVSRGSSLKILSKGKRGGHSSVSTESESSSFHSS

In the case of `O=C(O)C(O)C(O)C(=O)O` (centres unmarked) [tartrate], in data set [1], the “buffering capacity (pKa value +/-1)” value was 2.04-5.37.
Molecule `N=C(N)NCCC[C@@H]1NC(=O)[C@H](CCCNC(=N)N)NC(=O)[C@@H](Cc2ccc(O)cc2)NC(=O)CNC(=O)[C@H](Cc2c[nH]c3ccccc23)NC1=O` [Trp] (cyclo([dY]RRWG)) gave a half-maximal inhibitory concentration (IC50) on CXCR4 of 13 nM.
Turning to `O=C(O)O` [carbonate], in data set [1] (pH range), the “buffering capacity (pKa value +/-1)” value is on record as 5.35-11.33.
For phosphate, the “buffering capacity (pKa value +/-1)” value in data set [1] is reported as 1.12-13.67.
As for `N=C(N)NCCC[C@@H]1NC(=O)[C@H](CCCNC(=N)N)NC(=O)[C@@H](Cc2ccc(O)cc2)NC(=O)CNC(=O)[C@H](Cc2nc3ccccc3s2)NC1=O` [Bth], at CXCR4, it took 18 nM to reach half-maximal inhibition (IC50).

One may read the IC50 as the point on the concentration scale where inhibition reaches its midpoint. High values mean weaker potency in that assay, low ones greater potency in that assay.
